# In patent publication US20040019092A1, “Non-peptide somatostatin receptor ligands” (priority 2001, published 2004):
# Key:
# [1] = system: GH secretion; assay: Unanesthetized estradiol primed male rats, oral by gavage: GH; type: in vivo, rat; conditions: estradiol implant male rats, oral by gavage, 1 hour
# Experimental: The inhibitory effect of the compounds on GH release may also be examined after oral application to male rats with oestradiol implants. This test is carried out as follows.
# A loop (length 50 mmØ3 mm) of silastic with 50 mg of oestradiol is implanted under the dorsal skin of anaesthetized male OFA rats that have a weight of ca. 300 g. At various times (1 to 6 months later), these animals, in a fasted state, are used repeatedly for tests. The test substances are active in this test at doses from 0.1 to 5 mg/kg, when GH level in the blood serum is determined by radio-immunoassay 1 and 2 hours after oral administration.
# Table 5 summarizes the results obtained in the estradiol primed male rats that received the compounds orally by gavage. These rats have stabilized elevated GH plasma levels as well as increased prolactin levels. In contrast to normal untreated rats, who's prolactin secretion is not sensitive to the inhibitory effect of somatostain, in these rats the prolactin secretion is inhibited to a similar degree as the GH secretion. Therefore, the inhibitory effect can be measured on 2 different parameters, GH and prolactin. The mean enteral absorption and activity of the respective compounds are shown.
# [2] = system: basal plasma levels of growth hormone, glucagon, insulin and glucose; assay: Endocrine parameters in the Rhesus monkey after subcutaneous administration; type: in vivo
# Experimental: Therefore, they were further investigated in the Rhesus monkey and their activity profile was determined. Using subcutaneous administration, they were characterized in this species, by measuring their effects on the basal plasma levels of growth hormone, glucagon, insulin as well changes in glucose levels.
# Animals and blood sampling: Rhesus monkeys, fed on the previous day in the morning with fruits only, were placed, slightly anesthetized with ketamin (Ketalar©, Parke-Davis), in primate chairs and brought to the experimental room. A catheter, consisting of an in-dwelling cannula (Vasocan Braunüle, 20G, B. Braun Melsungen AG, D-Melsungen), an extension line made from PP 800/110/260/100 Portex© tubing and a special adapter between cannula and tubing with a minimal void volume, was placed in a saphenic vein. The total volume of this catheter was approximately 0.7 mL. The distal end was placed through a hole in the wall to the adjacent room in order to allow infusion and blood sampling without being noticed by the animal. The animals were monitored with a video system.
# During the entire duration of the experiment an infusion of 5 to 10 mL/h of isotonic saline (NaCl 0.9% Braun, B. Braun Medical AG, CH-Emmenbrücke) containing heparin sodium 80 mg/L (Biochemie GMBH, A-Kundl) was maintained, using a roller pump (Vario-Perpex, Guldener, CH-Zürich). At each sampling time 1.5 mL (twice the void volume of the catheter) was taken in one syringe before collecting the actual blood sample of 2 mL in another syringe. The first 1.5 mL were reinfused immediately after the actual sample had been taken. The sample was mixed with 0.1 mL of a mixture containing EDTA (ethlenediaminetetraacetic acid tetrasodium Fluka, CH-Buchs) and aprotinin (Trasylol©, Bayer) resulting in final concentrations of 1.8 mg/mL and 1000 KIE/mL, respectively. The blood samples were kept on ice and spun in a cooled centrifuge. […]
# Determinations: The blood levels of the hormones were determined by radioimmunoassay (RIA) using the appropriate antisera, antibodies, labels and standards, glucose by an enzymatic assay: […]
# [3] = system: GHRH stimulated GH secretion; assay: GH secretion, rat in urethan anesthesia, intraduodenal + repeated GHRH stimulation; type: in vivo; conditions: urethan
# Source text: No further treatment followed subcutaneous or intraduodenal application. […] This value has been determined in a total of four independent experiments. […] However, in further studies compound 47 has also been tested by the enteral route of administration after repeated stimulation of the GH secretion by GHRH. […] With most of these selected compounds additional in vivo experiments in other models (intraduodenal application followed by repeated stimulation of the GH secretion by GHRH, oral application by gavage of unanesthetized, estradiol primed rats) were performed. Table 4 summarizes data obtained for the inhibition of the stimulated GH secretion after subcutaneous, intraduodenal and intravenous application and the inhibitory effects obtained for different time points during intravenous infusion of selected hydantoins. […] [table]
# [4] = In vitro blood distribution; type: in vitro ADME; conditions: rat blood, 5-5000 ng/mL
# Experimental: (§1) In vitro blood distribution and plasma protein binding. For blood distribution studies, fresh, heparinized rat blood (n=3) was spiked with [^14C]-42 to achieve the final concentrations of 5, 50, 500 and 5000 ng/mL. After a 30-minutes incubation at 4° C., 22° C. and 37° C., the samples were centrifuged (1600×g, 10 minutes, at the incubation temperature) to get plasma. The fraction free of 42 in plasma of rat and human was determined by equilibrium dialysis. Phosphate buffer was spiked with [^14C]-42 (50, 500, 5000 ng/mL) and dialyzed versus blank rat and human plasma at 37° C. for 2 hours. The radioactivity was determined in spiked blood samples, in plasma obtained after centrifugation and in both compartments after dialysis.
# [5] = male, Wistar, rat, in vivo, iv
# Experimental: The pharmacokinetic study was performed with 3 male Wistar rats (BRL) weighing 300-330 g with a one week interval between administration phases. The day before the first dosing, the rats underwent surgical implantation of an in-dwelling cannula; the right femoral artery was cannulated and the tube was passed subcutaneously to emerge at the back of the neck. The animals were individually housed in metabolism cages and fasted overnight before administrations.
# The dose solution was administered (5 mL/kg) by gastric incubation.
# The dose solution was administered (2 mL/kg) into the surgically exposed femoral vein.
# During the study, 18 blood samples (100-500 μL) were taken, up to 48 hours post-dose from the cannulated femoral artery representing a total volume of 5.7 mL blood. The loss of blood was compensated by infusion of 6 times 1 mL of blood from donor rats. Urine samples were collected up to 48 hours post-dose. For the analysis of the in vivo brain distribution, 3 male rats were intravenously dosed (1 mg/kg or 72 μCi/kg) as described above. At 0.5 hours after administration, the rats were sacrificed; blood and brain were collected.
# Determination of radioactivity in blood, plasma, brain homogenates and in urine, was carried out by direct liquid scintillation counting. Prior to radiometric determination, blood and tissue were solubilized in Solutron (Kontron Instruments, Zurich, Switzerland). After adding 10 mL of scintillation cocktail (Lumasafe, Lumac, Landgraaf, the Netherlands), all samples were counted in Tri-carb liquid scintillation analyzer (Canberra Packard, IL).
# The procedure involved the addition of 5 μg of non-radiolabeled 42 to each blood sample as an internal standard. After adding 1 mL of acetonitrile, the sample was mixed with a Polytron mixer and centrifuged (234000×g, 30 minutes) in a Beckman centrifuge (Model TL100). The supernatant was evaporated in a vacuum centrifuge (Univapo 150H, Zivy). The residue was reconstituted in 250 μL of mobile phase-water (3:1 v/v) and centrifuged (3000×g, 60 s). The supernatant (200 μL) was injected onto HPLC. […] Compound 42 was separated from potential metabolites and endogenous compounds on a RP18 endcapped Superspher column, 125 mm×4 mm (Merck) at 45° C. The mobile phase consisted of 0.1% tetramethylammonium hydroxide—acetonitrile (500:500 v/v). The flow rate was 1 mL/min; the effluent was monitored at 260 nm. […] The limit of quantification was 0.3 ng/mL.
# The peeling method was applied to describe the data by a compartment model approach, characterized by the following equation: C═C1*e^λ1−t+C2*e^λ2−t. The initial estimates of C1, λ1, C2, λ2 were taken to generate the best fit using the computer software ELSFIT. The estimates for half-lives were calculated as T1/2λi=ln2/λi.
# [6] = Plasma protein binding, equilibrium dialysis, human plasma; type: in vitro ADME; conditions: 50-5000 ng/mL, 37° C.
# Experimental: as §1
Compound,GH 1 H ID50 [1],MEAN ID50 (GH and prolactin) [1],"dose levels necessary for inhibition of hormone release, times higher than Octreotride [2]",INTRADUODENAL + GHRH ID50 15′ ([3]; ø = no effect at this dose),INTRADUODENAL + GHRH ID50 30′ [3],INTRADUODENAL + GHRH ID50 60′ [3],"INTRADUODENAL + GHRH ID50 120′ ([3]; 120′, ø = no effect at this dose)",proportion present in plasma at 4° C. ([4]; 4° C.),proportion present in plasma at 37° C. ([4]; 37° C.),AUC ratio parent drug/radioactivity [5],f2 (fraction of dose eliminated within λ2) [5],fraction free in human plasma [6],inhibitory effects on hormone release ([2]; up to 1100 μg/kg)
Cc1cccc2c(CC3C(=O)N(CCCCCN)C(=O)N3S(=O)(=O)c3ccc(Oc4ccc(O)cc4)c(CN)c3)c[nH]c12 (stereo not drawn) [Compound 45],8 mg/kg,11.313 mg/kg,about 100 times,4.663 mg/kg,6.52 mg/kg,14.047 mg/kg,˜22000 μg/kg,,,,,,
N#Cc1cc(S(=O)(=O)N2C(=O)N(CCCCCN)C(=O)C2Cc2c[nH]c3ccccc23)ccc1Oc1ccc(N)cc1 (stereo not drawn) [Compound 42],,,,,,,,69-92%,40-60%,0.7,67%,15-23%,
Cc1cccc2c(CC3C(=O)N(CCCCCN)C(=O)N3S(=O)(=O)c3ccc(Oc4ccc(O)c(Cl)c4)c(C#N)c3)c[nH]c12 (stereo not drawn) [Compound 44],16 mg/kg,16 mg/kg,,13 mg/kg,16 mg/kg,19 mg/kg,,,,,,,no consistent inhibitory effects
